# Laboratory results from patent US6855710B2, “Substituted indolines with an inhibitory effect on various kinases and complexes of CDKs” (Boehringer Ingelheim Pharma KG, priority 1998, dated 2005).
row,Compound,melting point
1,"CC(=O)NCc1ccc(/C(Nc2ccc(CCNC(=O)OC(C)(C)C)cc2)=C2/C(=O)Nc3ccc([N+](=O)[O-])cc32)cc1 [Example 157, (Z)-3-{1-[4-(2-tert.butoxycarbonylamino-ethyl)-phenylamino]-1-(4-acetylaminomethyl-phenyl)-methylidene}-5-nitro-2-indolinone]",94 °C (dec.)
2,"CNCCc1ccc(N/C(=C2\C(=O)Nc3ccc([N+](=O)[O-])cc32)c2ccccc2)cc1 [Example 254, (Z)-3-{1-[4-(2-methylamino-ethyl)-phenylamino]-1-phenyl-methylidene}-5-nitro-2-indolinone]",250 to 252 °C
3,"CN(C(=O)C(F)(F)F)c1cccc(N/C(=C2\C(=O)Nc3ccccc32)c2ccccc2)c1 [Example 36, (Z)-3-{1-[3-(N-trifluoroacetyl-N-methyl-amino)-phenylamino]-1-phenyl-methylidene}-2-indolinone]",224 to 227 °C
4,"O=C1Nc2ccc([N+](=O)[O-])cc2/C1=C(/Nc1ccc(CNc2ncccn2)cc1)c1ccccc1 [Example 271, (Z)-3-{1-[4-(pyrimidin-2-ylaminomethyl)-phenylamino]-1-phenyl-methylidene}-5-nitro-2-indolinone]",284 to 286 °C
5,"CC(=O)N(C)Cc1ccc(N/C(=C2\C(=O)Nc3ccc([N+](=O)[O-])cc32)c2ccccc2)cc1 [Example 122, (Z)-3-{1-[4-(N-acetyl-N-methyl-aminomethyl)-phenylamino]-1-phenyl-methylidene}-5-nitro-2-indolinone]",307 °C
6,"COc1cccc(/C(Nc2ccc(CN(C)C)cc2)=C2/C(=O)Nc3ccccc32)c1 [Example 217, (Z)-3-[1-(4-dimethylaminomethyl-phenylamino)-1-(3-methoxyphenyl)-methylidene]-2-indolinone]",193 to 194 °C
7,"CN(C)CCN(C=O)c1ccc(N/C(=C2\C(=O)Nc3ccccc32)c2ccccc2)cc1 [Example 339, (Z)-3-{1-[4-(N-(2-dimethylaminoethyl)-N-formyl-amino)-phenylamino]-1-phenyl-methylidene}-2-indolinone]",246 to 248 °C
8,"CN(C)CCNS(=O)(=O)c1ccc(N/C(=C2\C(=O)Nc3ccc([N+](=O)[O-])cc32)c2ccccc2)cc1 [Example 401, (Z)-3-{1-[4-(2-dimethylamino-ethylaminosulphonyl)-phenylamino]-1-phenyl-methylidene}-5-nitro-2-indolinone]",260 to 261 °C
9,"COc1ccccc1N/C(=C1\C(=O)Nc2ccccc21)c1ccccc1 [Example 4, (Z)-3-[1-(2-methoxy-phenylamino)-1-phenyl-methylidene]-2-indolinone]",237 °C
10,"CC1CCN(CCc2ccc(N/C(=C3\C(=O)Nc4ccc([N+](=O)[O-])cc43)c3ccccc3)cc2)CC1 [Example 259, (Z)-3-{1-[4-(2-(4-methylpiperidino)-ethyl)-phenylamino]-1-phenyl-methylidene}-5-nitro-2-indolinone]",252 to 253 °C
11,"COc1cccc(/C(Nc2ccc(CN(C)C)cc2)=C2/C(=O)Nc3ccc([N+](=O)[O-])cc32)c1 [Example 218, (Z)-3-[1-(4-dimethylaminomethyl-phenylamino)-1-(3-methoxyphenyl)-methylidene]-5-nitro-2-indolinone]",206 to 208 °C
12,"CC(=O)N(C)c1cccc(N/C(=C2\C(=O)Nc3ccccc32)c2ccccc2)c1 [Example 38, (Z)-3-{1-[3-(N-acetyl-N-methylamino)-phenylamino]-1-phenyl-methylidene}-2-indolinone]",237 to 239 °C
13,"CC(C)(C)OC(=O)NCc1ccc(N/C(=C2\C(=O)Nc3ccc([N+](=O)[O-])cc32)c2ccccc2)cc1 [Example 113, (Z)-3-[1-(4-tert.butoxycarbonylaminomethyl-phenylamino)-1-phenyl-methylidene]-5-nitro-2-indolinone]",234 to 236 °C (dec.)
